From the RepoRT retention time repository (doi:10.1016/j.jchromb.2020.122105)

Experiments:
Conditions in all cases: stereoisomer not certain
[1] = RP, Waters CORTECS T3, 100 × 2.1 mm, 2.7 µm, 0.2 mL/min, estimated dead time 1.1 min; A: water + 0.1% formic acid, pH 3; B: methanol + 0.1% formic acid, pH 3; gradient (min/%B) 0/5 5/5 25/95 25.1/100 35/100 35.1/5 45/5
[2] = HILIC, Merck SeQuant ZIC-HILIC, 150 × 2.1 mm, 5 µm, 0.75 mL/min, estimated dead time 0.44 min; A: water + 0.1% acetic acid + 10 mM ammonium acetate, pH 4; B: 5% water + 95% acetonitrile + 0.1% acetic acid + 10 mM ammonium acetate, pH 4; gradient (min/%B) 0/95 5/95 20/57 25/57 30/95 40/95
[3] = RP, Thermo Scientific Hypercarb, 150 × 2.1 mm, 5 µm, 0.1 mL/min, estimated dead time 3.3 min; A: water + 0.1% formic acid, pH 3; B: methanol + 0.1% formic acid, pH 3; gradient (min/%B) 0/5 5/5 20/100 35/100 35.1/5 45/5
[4] = HILIC, Waters XBridge BEH Amide, 100 × 2.1 mm, 2.5 µm, 0.5 mL/min, estimated dead time 0.44 min; A: water + 0.1% acetic acid + 10 mM ammonium acetate, pH 4; B: 5% water + 95% acetonitrile + 0.1% acetic acid + 10 mM ammonium acetate, pH 4; gradient (min/%B) 0/95 5/95 20/57 25/57 30/95 40/95
[5] = RP, Waters ACQUITY UPLC BEH C18, 100 × 2.1 mm, 1.7 µm, 0.1 mL/min, estimated dead time 2.2 min; A: water + 0.045% formic acid + 0.11% ammonium hydroxide, pH 7; B: methanol; gradient (min/%B) 0/5 5/5 25/95 25.1/100 35/100 35.1/5 45/5
[6] = RP, Waters ACQUITY UPLC BEH C18, 100 × 2.1 mm, 1.7 µm, 0.2 mL/min, estimated dead time 1.1 min; A: water + 0.025% formic acid + 20 mM ammonium acetate + 0.055% ammonium hydroxide, pH 7; B: methanol; gradient (min/%B) 0/5 5/5 25/100 30/100 30.1/5 35/5
[7] = RP, Waters CORTECS T3, 100 × 2.1 mm, 2.7 µm, 0.2 mL/min, estimated dead time 1.1 min; A: water + 0.045% formic acid + 0.11% ammonium hydroxide, pH 7; B: methanol; gradient (min/%B) 0/5 5/5 25/95 25.1/100 35/100 35.1/5 45/5
[8] = RP, Waters CORTECS T3, 100 × 2.1 mm, 2.7 µm, 0.3 mL/min, estimated dead time 0.73 min; A: water + 0.1% formic acid, pH 3; B: methanol + 0.1% formic acid, pH 3; gradient (min/%B) 0/0 5/0 25/100 30/100 30.1/0 35/0
[9] = RP, Waters CORTECS T3, 100 × 2.1 mm, 2.7 µm, 0.3 mL/min, estimated dead time 0.73 min; A: water + 0.1% formic acid, pH 3; B: methanol + 0.1% formic acid, pH 3; gradient (min/%B) 0/0 1/0 6/5 30/100 35/100 35.1/0 40/0
[10] = RP, Waters ACQUITY UPLC BEH C18, 100 × 2.1 mm, 1.7 µm, 0.2 mL/min, estimated dead time 1.1 min; A: water + 0.1% formic acid, pH 3; B: methanol + 0.1% formic acid, pH 3; gradient (min/%B) 0/5 5/5 25/100 30/100 30.1/5 35/5
[11] = RP, Waters CORTECS T3, 100 × 2.1 mm, 2.7 µm, 0.25 mL/min, estimated dead time 0.88 min; A: water + 0.1% formic acid, pH 3; B: methanol + 0.1% formic acid, pH 3; gradient (min/%B) 0/5 5/5 25/95 25.1/100 35/100 35.1/5 45/5
[12] = RP, Waters CORTECS T3, 100 × 2.1 mm, 2.7 µm, 0.15 mL/min, estimated dead time 1.5 min; A: water + 0.1% formic acid, pH 3; B: methanol + 0.1% formic acid, pH 3; gradient (min/%B) 0/0 1/0 6/5 30/100 35/100 35.1/0 40/0
[13] = RP, Waters CORTECS T3, 100 × 2.1 mm, 2.7 µm, 0.3 mL/min, estimated dead time 0.73 min; A: water + 0.1% formic acid, pH 3; B: methanol + 0.1% formic acid, pH 3; gradient (min/%B) 0/0 5/0 25/100 30/100 30.1/0 35/0; remark: listed apart in the source
[14] = RP, Waters CORTECS T3, 100 × 2.1 mm, 2.7 µm, 0.3 mL/min, estimated dead time 0.73 min; A: water + 0.1% formic acid, pH 3; B: methanol + 0.1% formic acid, pH 3; gradient (min/%B) 0/0 1/0 6/5 30/100 35/100 35.1/0 40/0; remark: listed apart in the source
[15] = RP, Waters CORTECS T3, 100 × 2.1 mm, 2.7 µm, 0.25 mL/min, estimated dead time 0.88 min; A: water + 0.1% formic acid, pH 3; B: methanol + 0.1% formic acid, pH 3; gradient (min/%B) 0/0 1/0 6/5 30/100 35/100 35.1/0 40/0
[16] = RP, Waters CORTECS T3, 100 × 2.1 mm, 2.7 µm, 0.1 mL/min, estimated dead time 2.2 min; A: water + 0.1% formic acid, pH 3; B: methanol + 0.1% formic acid, pH 3; gradient (min/%B) 0/5 5/5 25/95 25.1/100 35/100 35.1/5 45/5
[17] = RP, Waters CORTECS T3, 100 × 2.1 mm, 2.7 µm, 0.2 mL/min, estimated dead time 1.1 min; A: water + 0.1% formic acid, pH 3; B: methanol + 0.1% formic acid, pH 3; gradient (min/%B) 0/0 1/0 6/5 30/100 35/100 35.1/0 40/0
[18] = RP, Waters CORTECS T3, 100 × 2.1 mm, 2.7 µm, 0.1 mL/min, estimated dead time 2.2 min; A: water + 0.1% formic acid, pH 3; B: methanol + 0.1% formic acid, pH 3; gradient (min/%B) 0/0 1/0 6/5 30/100 35/100 35.1/0 40/0
[19] = RP, Waters CORTECS T3, 100 × 2.1 mm, 2.7 µm, 0.3 mL/min, estimated dead time 0.73 min; A: water + 0.1% formic acid, pH 3; B: methanol + 0.1% formic acid, pH 3; gradient (min/%B) 0/5 5/5 25/100 30/100 30.1/5 35/5
[20] = RP, Waters CORTECS T3, 100 × 2.1 mm, 2.7 µm, 0.3 mL/min, estimated dead time 0.73 min; A: water + 0.1% formic acid, pH 3; B: methanol + 0.1% formic acid, pH 3; gradient (min/%B) 0/5 5/5 25/95 25.1/100 35/100 35.1/5 45/5
[21] = RP, Waters ACQUITY UPLC BEH C18, 100 × 2.1 mm, 1.7 µm, 0.1 mL/min, estimated dead time 2.2 min; A: water + 0.1% formic acid, pH 3; B: methanol + 0.1% formic acid, pH 3; gradient (min/%B) 0/5 5/5 25/100 30/100 30.1/5 35/5
[22] = RP, Waters CORTECS T3, 100 × 2.1 mm, 2.7 µm, 0.2 mL/min, estimated dead time 1.1 min; A: water + 0.1% formic acid, pH 3; B: methanol + 0.1% formic acid, pH 3; gradient (min/%B) 0/0 1/0 6/5 30/100 35/100 35.1/0 40/0; remark: listed apart in the source
[23] = RP, Waters ACQUITY UPLC BEH C18, 100 × 2.1 mm, 1.7 µm, 0.2 mL/min, estimated dead time 1.1 min; A: water + 0.025% formic acid + 20 mM ammonium acetate + 0.055% ammonium hydroxide, pH 7; B: methanol; gradient (min/%B) 0/5 5/5 25/100 30/100 30.1/5 35/5; remark: listed apart in the source

SMILES: NC(=O)CC[C@H](N)C(=O)O [L-GLUTAMINE]
- LC retention time [1]: 2.48 min
- LC retention time [2]: 12.9 min
- LC retention time [3]: 4.84 min
- LC retention time [4]: 13 min

SMILES: N[C@H](CO)Cc1cnc[nH]1 [L-HISTIDINOL]
- LC retention time [5]: 3.33 min
- LC retention time [6]: 1.79 min
- LC retention time [3]: 4.68 min
- LC retention time [4]: 11.4 min
- LC retention time [7]: 1.54 min

SMILES: O=CNCC(=O)O [N-FORMYLGLYCINE]
- LC retention time [8]: 0.91 min

SMILES: CC(=O)NCC(=O)O [N-ACETYLGLYCINE]
- LC retention time [9]: 0.95 min
- LC retention time [10]: 1.46 min
- LC retention time [4]: 11.2 min
- LC retention time [11]: 1.11 min

SMILES: NC(N)=N[C@@H](CC(=O)O)C(=O)O [N-AMIDINO-L-ASPARTATE]
- LC retention time [12]: 1.78 min
- LC retention time [13]: 0.89 min
- LC retention time [3]: 12.7 min
- LC retention time [4]: 14.5 min

SMILES: CNCCc1c[nH]c2ccccc12 [N-METHYLTRYPTAMINE]
- LC retention time [14]: 9.8 min
- LC retention time [15]: 10.4 min
- LC retention time [12]: 12.5 min
- LC retention time [16]: 13.1 min
- LC retention time [5]: 14.4 min
- LC retention time [17]: 11.2 min
- LC retention time [13]: 9.75 min
- LC retention time [6]: 11.1 min
- LC retention time [18]: 9.68 min
- LC retention time [19]: 8.14 min
- LC retention time [7]: 10.7 min
- LC retention time [20]: 8.19 min
- LC retention time [21]: 13.3 min

SMILES: O=c1[nH]c(=O)c2ncn(C3OC(COP(=O)(O)O)C(O)C3O)c2[nH]1 (stereo not drawn) [XANTHOSINE 5'-MONOPHOSPHATE]
- LC retention time [8]: 0.93 min
- LC retention time [1]: 2.67 min
- LC retention time [9]: 0.92 min
- LC retention time [22]: 1.35 min
- LC retention time [11]: 1.08 min

SMILES: O=c1ccn(C2CC(O)C(COP(=O)(O)O)O2)c(=O)[nH]1 (stereo not drawn) [2'-DEOXYURIDINE 5'-MONOPHOSPHATE]
- LC retention time [1]: 2.67 min
- LC retention time [9]: 0.92 min
- LC retention time [22]: 1.35 min
- LC retention time [4]: 13.3 min
- LC retention time [11]: 1.08 min

SMILES: O=C(O)CCCCCCCCCO [10-HYDROXYDECANOATE]
- LC retention time [8]: 17.3 min
- LC retention time [10]: 18.3 min
- LC retention time [2]: 1.13 min
- LC retention time [11]: 17.7 min

SMILES: COC1OC(CO)C(O)C(O)C1O [METHYL BETA-D-GALACTOSIDE]
- LC retention time [2]: 5.01 min
- LC retention time [4]: 4.84 min

SMILES: Nc1ncnc2c1ncn2C1OC(COP(=O)(O)OP(=O)(O)OC2OC(CO)C(O)C(O)C2O)C(O)C1O (stereo not drawn) [ADENOSINE 5'-DIPHOSPHOGLUCOSE]
- LC retention time [8]: 0.89 min
- LC retention time [9]: 0.92 min
- LC retention time [10]: 1.56 min
- LC retention time [22]: 1.35 min
- LC retention time [11]: 1.08 min

SMILES: O=c1[nH]cc(CO)c(=O)[nH]1 [5-HYDROXYMETHYLURACIL]
- LC retention time [9]: 0.9 min
- LC retention time [10]: 1.41 min
- LC retention time [11]: 1.06 min

SMILES: Cn1cncc1CC(NC(=O)CCN)C(=O)O [L-ANSERINE]
- LC retention time [1]: 2.43 min
- LC retention time [6]: 1.42 min
- LC retention time [3]: 4.86 min
- LC retention time [4]: 15 min
- LC retention time [23]: 1.41 min

SMILES: Cc1cc2nc3c(=O)[nH]c(=O)nc-3n(CC(O)C(O)C(O)COP(=O)(O)OP(=O)(O)OCC3OC(n4cnc5c(N)ncnc54)C(O)C3O)c2cc1C (stereo not drawn) [FLAVIN ADENINE DINUCLEOTIDE]
- LC retention time [9]: 12.1 min

SMILES: Nc1cccc2ccccc12 [1-NAPHTHYLAMINE]
- LC retention time [14]: 11.8 min
- LC retention time [15]: 12.6 min
- LC retention time [12]: 15.2 min
- LC retention time [16]: 16.1 min
- LC retention time [17]: 13.5 min
- LC retention time [13]: 11.5 min
- LC retention time [6]: 14.7 min
- LC retention time [3]: 30.6 min
- LC retention time [18]: 12.1 min
- LC retention time [19]: 10.2 min
- LC retention time [7]: 14.5 min
- LC retention time [20]: 10.3 min
- LC retention time [21]: 16.5 min

SMILES: O=c1[nH]c(=O)c2nccnc2[nH]1 [2,4-DIHYDROXYPTERIDINE]
- LC retention time [2]: 1.46 min
- LC retention time [4]: 1.7 min
- LC retention time [21]: 5.19 min

SMILES: CC(C)=CC(=O)SCCNC(=O)CCNC(=O)C(O)C(C)(C)COP(=O)(O)OP(=O)(O)OCC1OC(n2cnc3c(N)ncnc32)C(O)C1OP(=O)(O)O (stereo not drawn) [3-METHYLCROTONYL-COA]
- LC retention time [23]: 8.78 min
